Data reported in patent publication US20150368248A1, “2-SUBSTITUTED-6-BIARYLMETHYLAMINO-9-CYCLOPENTYL-9H-PURINE DERIVATIVES, USE THEREOF AS MEDICAMENTS, AND PHARMACEUTICAL COMPOSITIONS” (UNIVERZITA PALACKEHO V OLOMOUCI, priority 2013, published 2015).
Read-outs that look alike come from different tables or passages of the source.

Legend:
[1] = system: HepG2; assay: Determination of long-term chemosensitivity (MTT); format: cell-based; details: Homo sapiens, read-out: IC50 for BP14, HepG2
Protocol: (§1) Cell viability was determined using the 3-(4,5 dimethylthiazol-2-yl)-2,5-diphenyltetrazolium bromide (MTT) assay. Briefly, cells were seeded in triplicates at a density of 6×10^3 cells per well. After 24 hours, cells were incubated with drug-containing medium for 72 hours. Cells were incubated with MTT solution (5 mg/ml; Sigma, St. Louis, USA) and medium was replaced with DMSO after five hours. The absorbance was measured at 620 nm by employing a microplate reader (Asys HiTech, Salzburg, Austria). MTT assays were repeated 3 times for each drug application and untreated cells were used as reference. IC50 values were obtained by log-linear interpolation of data points and are depicted by dose-response curves using the software GraphPad Prism® 5.01.
(§2) The selection of chemoresistant cells was monitored every 6 weeks by the determination of IC50 values using the MTT assay. HCC cells showing higher IC50 values after treatment with inhibitors as compared to untreated cells are considered as chemoresistant.

[2] = system: Hep3B; assay: Determination of long-term chemosensitivity (MTT); format: cell-based; details: Homo sapiens
Protocol: as §1, §2

[3] = system: HUVEC cells; assay: Tube formation assay on Matrigel; format: cell-based, human; details: 24 h treatment
Protocol: For an evaluation of tube formation, HUVEC cells in endothelial cell growth medium (ECGM) containing tested compound were seeded onto Matrigel® (BD) coated ibidi angiogenesis slides (15-well, ibidi GmbH, Munich, Germany). After 24 h, images were taken using the Olympus BX50 miscoscope with DP Controller system. Evaluation of formation of tubes was expressed as a number of tubes and number of nodes of treated cells compared with untreated control using specific “in house” software.

[4] = system: CDK1/CDK2; assay: Kinase inhibition assays using cell-free extracts; format: biochemical, human; details: 0.03 μM
Protocol: Whole cell extracts were prepared by lysing Hep3B cells with a buffer containing 20 mM Tris pH 8.0, 100 mM NaCl, 1 mM EDTA and 0.5% NP-40. 100 μg of extract was used for immunoprecipitation at 4° C. for 4 hours either with 1 μg of the anti-CDK2 antibody M2 (Santa Cruz Biotechnology, Santa Cruz, USA) or with 1 μg of the anti-cyclin B1 antibody GNS1 (Santa Cruz Biotechnology, Santa Cruz, USA). The precipitated proteins were washed three times with lysis buffer followed by one wash with the kinase buffer (50 mM HEPES pH 7.5, 10 mM MgCl2 and 1 mM DTT) and subsequently resuspended in 20 μl kinase buffer containing 5 μCi [γ-^32P]ATP
(PerkinElmer, Santa Clara, USA), 1 μg histone H1 (New England Biolabs, Ipswich, USA) and the respective concentration of inhibitor. After incubation for 60 minutes at 30° C., the supernatant was boiled in sample buffer containing 60 mM Tris/HCl pH6.8, 10% Glycerol, 2% SDS, 5% β-mercaptoethanol, 0.02% Bromophenol Blue. The proteins were separated by SDS-PAGE and blotted onto nitrocellulose membrane. Thereafter, the membrane was stained with Ponceau S to check equal loading and analyzed by autoradiography.

[5] = system: Mcl-1; assay: Immunoblot analysis of anti-apoptotic protein Mcl-1; format: cell-based; details: Hep3B, PLC/PRF/5 and AKH3p cell lines, 24 hours
Protocol: Effect of BP14 on cell apoptosis was complemented by immunoblot analysis of selected apoptotic proteins. For immunoblotting, cell were detached with rubber policeman and washed three times with ice-cold PBS and lysed in buffer (50 mM Tris, pH 7.4, 250 mM NaCl, 5 mM EDTA, 50 mM NaF, 1 mM Na3VO4, 1% Nonidet P40) containing mixture of protease and phosphatase inhibitors (Sigma-Aldrich, USA). 20 μg of total proteins were separated by SDS-polyacrylamide gel electrophoresis (SDS-PAGE) and transferred onto nitrocellulose membranes. Membranes were blocked in 5% milk and 0.1% Tween 20 in PBS and probed overnight with specific antibodies for PARP-1 (clone F-2; Santa Cruz Biotechnology, USA), Mcl-1 (S-19; Santa Cruz Biotechnology, USA) and β-actin (C-4, Santa Cruz Biotechnology, USA). All primary antibodies were diluted in PBS containing 5% powdered milk; 0.1% Tween 20. Peroxidase conjugated rabbit anti-mouse immunoglobulin or porcine anti-rabbit immunoglobulin antisera (DAKO, Denmark) were used as the secondary antibodies and visualised with ECL reagents (Amersham-Pharmacia, Little Chalfont, UK).

[6] = system: RNA polymerase II phosphorylation at serines 2 and 5; assay: Immunoblot of RNA polymerase II phosphorylation (CDK7/CDK9 substrate); format: cell-based, human
Protocol: We monitored levels of phosphorylation of RNA polymerase II, which is a substrate of CDK7 and CDK9, in cells treated with compound BP14 (FIG. 3). Immunoblotting analysis was performed as described in Example 33 with using appropriate antibodies for anti-phospho RNA polymerase II (S5) (Bethyl Laboratories, USA), anti-phospho RNA polymerase II (S2) (Bethyl Laboratories, USA), anti-RNA polymerase II (clone ARNA-3, Millipore) and β-actin (clone C4, Santa Cruz Biotechnology, USA).
Immunoblotting was performed as described previously (36). The primary antibodies were used at the dilutions: anti-phospho-Ser5 RNA Pol II (CDK7; Bethyl Laboratories, Montgomery, USA), 1:1,000; anti-phospho-Ser2 RNA Pol II (CDK9; Bethyl Laboratories, Montgomery, USA), 1:1,000; anti-RNA Pol II (Santa Cruz Biotechnology, Santa Cruz, USA), 1:1,000; anti-PARP (Cell Signaling Technology, Beverly, USA), 1:1,000; anti-β-actin (Sigma, St. Louis, USA), 1:2.500. Horseradish peroxidase-conjugated secondary antibodies (Calbiochem, LaJolla, USA) were used at dilutions of 1:10,000.

| SMILES | IC50 ([1]; HepG2, control) [µM] | IC50 ([1]; HepG2, long-term exposure at 1/16 IC50) [µM] | IC50 ([1]; HepG2, long-term exposure at ¼ IC50) [µM] | IC50 ([1]; HepG2, long-term exposure at ½ IC50) [µM] | IC50 ([1]; HepG2, long-term exposure at ⅛ IC50) [µM] | IC50 ([2]; control, read-out: IC50 for BP14, Hep3B) [µM] | IC50 ([2]; long-term exposure at 1/16 IC50, read-out: IC50 for BP14, Hep3B) [µM] | IC50 ([2]; long-term exposure at ¼ IC50, read-out: IC50 for BP14, Hep3B) [µM] | IC50 ([2]; long-term exposure at ½ IC50, read-out: IC50 for BP14, Hep3B) [µM] | IC50 ([2]; long-term exposure at ⅛ IC50, read-out: IC50 for BP14, Hep3B) [µM] | branching points, number of tubes, total tube length and mean tube length [3] | CDK1/CDK2 activity in cell-free extracts [4] | level of anti-apoptotic protein Mcl-1 [5] | RNA polymerase II phosphorylation on serine 5 (CDK7) and serine 2 (CDK9) ([6]; HepG2 and PLC cells, below 1 μM, 24 hours) | phosphorylation at serines 2 and 5 of RNA polymerase II ([6]; mainly AKH3sp and Hep3B cell lines, 24 h) |
| --- | --- | --- | --- | --- | --- | --- | --- | --- | --- | --- | --- | --- | --- | --- | --- |
| NC1CCC(Nc2nc(NCc3ccc(-c4ccco4)nc3)c3ncn(C4CCCC4)c3n2)CC1 (stereo not shown) [BP14, N^2-(4-amino-cyclohexyl)-9-cyclopentyl-N^6-(6-furan-2-yl-pyridin-3-ylmethyl)-9H-purine-2,6-diamine] | 0.32 | 0.27 | 0.45 | 0.59 | 0.39 | 0.53 | 0.42 | 0.45 | 0.8 | 0.38 | significantly reduced | significantly reduced CDK1/CDK2 activity | large dose-dependent decrease | strong reduction of RNA polymerase II phosphorylation | rapid decrease in phosphorylation at serines 2 and 5 of RNA polymerase II |
| NC1CCC(Nc2nc(NCc3ccc(-c4ccccc4O)nc3)c3ncn(C4CCCC4)c3n2)CC1 (stereo not shown) [BP20, N^2-(4-amino-cyclohexyl)-9-cyclopentyl-N^6-[6-(2-hydroxy-phenyl)-pyridin-3-ylmethyl]-9H-purine-2,6-diamine] | – | – | – | – | – | – | – | – | – | – | significantly reduced | – | – | – | – |
